“Also recorded” adds a separate entry of the source.
How the values were obtained:
[1] = Screening of F8 related organic salts (crystallinity, hygroscopicity, solubility, stability, irritability); format: physicochemical; details: salt screening
Description: The selection of salt form is a key step to the success of drug development, which requires a well-designed screening strategy to find the salt form that meets the target performance. Although there are many kinds of counter ions, the commonly used ones are very limited.

MCF-7 = experiment: MTT cytotoxicity / anti-proliferation assay; format: cell-based; details: MCF-7, MTT, 72 h; read-out: IC50, cancer cell viability
[2] = In vivo acute toxicity study; design: species or system Kunming mice; details: for LD50 at 14 days: both sexes, Kunming, mouse, in vivo
Procedure: We investigated the toxicity of F8·2HCl when administered in three different ways, and F8·2HCl was all dissolved with normal saline, and the concentration of intravenous and intraperitoneal injection was 8 mg/mL, and the concentration of intragastric administration was 10 mg/mL. Ninety Kunming mice (45 males and 45 females) weighing 18–22 g were divided into 15 groups (n = 6). The doses of F8·2HCl injected by tail vein were 40 mg/kg, 60 mg/kg, 90 mg/kg, 110 mg/kg, 135 mg/kg, 200 mg/kg, 300 mg/kg, 400 mg/kg and 500 mg/kg, respectively. Intraperitoneal injection of different doses of F8·2HCl were 200 mg/kg, 250 mg/kg, 300 mg/kg, 360 mg/kg and 500 mg/kg, respectively. We also added a dose of 600 mg/kg administered by gavage. All drugs administered were dissolved in normal saline. Toxicity was monitored for 14 days. During the monitoring period, the status of mice was observed and their body weight was recorded.
To evaluate the safety of F8·2HCl in vivo, acute toxicity studies were performed. First, six Kunming mice (half male and half female) were gavage with F8·2HCl at a single dose of 600 mg/kg.

HGC-27 xenograft = experiment: HGC-27 tumor xenograft model; format: in vivo, BALB/c nude mice; details: p.o., bid; for tumor growth inhibition (TGI): 14 days, HGC-27 xenograft
Procedure: 4-week-old male BALB/c nude mice weighing 18g–22 g were injected with 100 μL HGC-27 cells (2 × 10^6 cells) to establish an undifferentiated gastric cancer model.
(A) Tumor volumes plotted as mean ± SEM. (B) Mice weight curve during treatment plotted as mean ± SD. (C,D) Tumor weight and size on the final day.

HCT-116 = experiment: MTT cytotoxicity / anti-proliferation assay; format: cell-based; details: HCT-116, MTT, 72 h; read-out: IC50, cancer cell viability
HuH7 = experiment: MTT cytotoxicity / anti-proliferation assay; format: cell-based; details: 72 h, read-out: IC50, cancer cell viability
Pharmacokinetic study = format: in vivo, SD rats
Procedure: 7–8-week Male SD rats weighing 180–220 g were allowed for this experiment. The rats were fasted 12 h except for water. The solution was administered to rats by intravenous injection of 10% ethanol +10% solutol as solvent and intragastric injection of 5% castor oil +5% solutol as solvent. The dose concentration was 8 mg/mL for intravenous injection and 10 mg/mL for gavage.
Twelve male SD rats were divided into 4 groups with 3 rats in each group. Group 1 was F8-intravenous injection group, the dose was 20 mg/kg; Group 2 was F8- intragastric administration group, the dose was 100 mg/kg; Group 3 was F8·2HCl-intragastric administration group, the dose was 100 mg/kg. Blank blood was collected before administration, and blood was collected at predetermined time points after administration:
Intravenous injection group: before administration, 2 min, 5 min, 15 min, 30 min, 1 h, 2 h, 4 h, 8 h, 12 h, 24 h. Intragastric administration group: Before administration, 5 min, 15 min, 30 min, 1 h, 2 h, 4 h, 6 h, 8 h, 12 h, 24 h. About 0.5 mL of blood was collected and placed in an EDTA-K2 tube at […]. The plasma was centrifuged and stored at −80°C. The samples were detected by liquid-mass spectrometry analysis system. The chromatographic column used was ODS-C18 (4.6 × 50 mm, 3 µm). The chromatographic conditions were as follows: Mobile phase A is aqueous phase, […] (including 0.1% formic acid); Mobile phase B is organic, 95% acetonitrile (containing 0.1% formic acid). Flow rate of 0.4 mL/min, column temperature: room temperature, according to the drug plasma concentration data, calculated pharmacokinetic parameters using DAS 2.0 software.
After oral administration, drugs need to go through four stages, namely, absorption, distribution, metabolism and excretion. However, the changes in solubility of drugs after salting only affect the absorption stage. Since absorption is accompanied by a dissolution process, the water solubility and dissolution rate of drugs are the main factors that determine their absorption, and then affect their oral bioavailability ([Elder et al., 2013]). Under the stimulation of cell activity and increased solubility, pharmacokinetic experiments were carried out to understand the drug exposure and provide a basis for further druggability of compound F8. In this study, compound F8 and F8·2HCl were administered in two different ways: tail vein injection (20 mg/kg) and gavage (100 mg/kg), and pharmacokinetic parameters were measured in Sprague-Dawley (SD) rats (Figures 3, 4).

HCC-1806 = experiment: MTT cytotoxicity / anti-proliferation assay; format: cell-based; details: HCC-1806, MTT, 72 h; read-out: IC50, cancer cell viability
[3] = Solubility in aqueous solution (pure water, normal saline); format: physicochemical
[4] = SD rats, 100 mg/kg, route ip (methods: intragastric), 100 mg/kg
[5] = SD rats, oral administration 100 mg/kg, 100 mg/kg

O=C(NCc1ccc(NC(=O)c2cc(F)ccc2N2CCCC2)cc1)OCc1cccnc1 [F8·2HCl]
Crystalline [1]: crystallization
Hygroscopic [1]: Almost no moisture absorption
Stability [1]: remain stable under high temperature (80°C), acid, alkaline, oxidation and reduction conditions; also recorded: Keep stable in extreme environment
Solubility ([1]; water): Soluble
IC50 (MCF-7): 47.69 ± 0.15 µM
HE staining of heart, liver, spleen, lung, kidney ([2]; 200 mg/kg intraperitoneal injection): intact without any lesions
HE staining of heart, liver, spleen, lung, kidney ([2]; 600 mg/kg oral administration): intact without any lesions
LD50 at 14 days ([2]; ip, intraperitoneal injection, KM mice, 14 days): 303 mg/kg
LD50 at 14 days ([2]; intravenous injection, KM mice, 14 days): 153 mg/kg
survival and abnormal reactions ([2]; single dose 600 mg/kg by gavage, KM mice, 14 days): All the mice survived 14 days without any abnormal reactions
tumor growth inhibition (TGI) (HGC-27 xenograft; 37.5 mg/kg): 60.6%
tumor growth inhibition (TGI) (HGC-27 xenograft; 75 mg/kg): 70.1%
body weight of mice vs control group (HGC-27 xenograft; 37.5 and 75 mg/kg, during treatment): no significant weight loss
tumor weight vs control group (HGC-27 xenograft; 37.5 and 75 mg/kg, final day): significant decrease in tumor weight
IC50 (HCT-116): 4.02 ± 0.28 µM
IC50 (HuH7): 10.9 ± 0.97 µM
AUC (0-∞) (Pharmacokinetic study; [4]): 1770 ng·h/mL
Cmax (Pharmacokinetic study; [4]): 580 ng/mL
T1/2 (Pharmacokinetic study; [4]): 3.63 h
Tmax (Pharmacokinetic study; [4]): 1.42 h
bioavailability (Pharmacokinetic study; SD rats, oral 100 mg/kg vs iv 20 mg/kg): 5.06%
area under the concentration-time curve (AUC0-t) (Pharmacokinetic study; [5]): 1770 ng·h/mL
peak plasma concentration (Pharmacokinetic study; [5]): 0.58 µg/mL
half-life extension relative to F8 (Pharmacokinetic study; male, Sprague-Dawley, rat, plasma, po, 100 mg/kg, same oral dose, F8·2HCl vs F8): 1 h
increase of Tmax relative to F8 (Pharmacokinetic study; same oral dose, F8·2HCl vs F8): ~10 times
IC50 (HCC-1806): 16.2 ± 0.41 µM
water solubility relative to compound F8 ([3]; F8·2HCl vs F8): more than 50 times
solubility in normal saline ([3]; normal saline, compared with pure water): not much different from pure water
Solubility in aqueous solution ([3]; pure water): more than 50 mg/mL

Reference: paper PMC10368370, “Development of o-aminobenzamide salt derivatives for improving water solubility and anti-undifferentiated gastric cancer” (Frontiers in Pharmacology, 2023)
